Assay results reported in patent US10919941B2, “Functional lipid constructs” (KODE BIOTECH LIMITED, priority 2007, dated 2021).
No end group written: not given here.

Legend:
[1] = tested on: Miltenberger Antibody Positive Panel; assay: Reactivity of modified RBCs against the Miltenberger Antibody Positive Panel; type: cell-based, human; parameters: key to score vs panel 15 TAP2 / score vs panel 4 T7202 / score vs panel 8 T5896 / score vs panel 2 T217 / score vs panel 3 T165 / score vs panel 14 TAP1 / score vs panel 10 Mia / score vs panel 11 Mur / score vs panel 12 Gam / score vs panel 6 T6025 / score vs panel 7 T8445 / score vs panel 9 MIII / score vs panel 13 BoxH / reactivity with Panel Serum #7 (T8445) / agglutination score, Panel Serum #7 (T8445): 0 or ‘−’ no agglutination; 0 or ‘−’ no agglutination; 1+ or 3=very weak agglutination; 1+ or 3=very weak agglutination; 2+ or 5=weak agglutination; 2+ or 5=weak agglutination; 3+ or 8=moderate strong agglutination; 3+ or 8=moderate strong agglutination; 4+ or 10/12=strong agglutination; 4+ or 10/12=strong agglutination; 4+ or 10/12=strong agglutination; details: for agglutination score, Panel Serum #7 (T8445): cells modified at 50 μg/ml, 2 hour 37° C., BioVue AHG cards; for reactivity with Panel Serum #7 (T8445): construct 50 μg/ml (2 hours, 37° C.)
Description: Red blood cells are modified by mixing 1 part by volume of washed packed red blood cells with 1 part by volume of peptide-lipid construct dispersed at a concentration of 10 to 1000 pg/ml in cell media (Celpresol™).
The suspensions are either: • 1. incubated for 2 hours at 37° C. before being washed and suspended in a cell medium for serological analysis at a concentration of 0.8 to 3% (Method 1); or • 2. incubated for 3 to 4 hours at room temperature (circa 25° C.) followed by 18 hours at 4° C. before being washed and suspended in a cell medium for serological analysis at a concentration of 0.8 to 3% (Method 2).
Serological reactions are graded or scored by either of two established systems (0 or ‘−’ no agglutination, 1+ or 3=very weak agglutination, 2+ or 5=weak agglutination, 3+ or 8=moderate strong agglutination, 4+ or 10/12=strong agglutination)
Serological platforms used are Tube (addition of reagents and reactants into plastic or glass serology tubes and after appropriate incubations, washing and centrifugation observing reactions macroscopically by eye and a 10× magnification eyepiece and scoring) and BioVue™ (addition of reactants into cassettes containing beads (including some reactants) and after appropriate incubations and centrifugation observing the reaction patterns trapped within the Gel matrix). BioVue is the serological column agglutination platform of Ortho-Clinical Diagnostics. Diamed is the serological column agglutination platform of Diamed AG.

[2] = tested on: antibody negative serums; assay: False positive reactions of modified RBCs with antibody negative serums/plasma; type: cell-based, human; parameters: key to Reaction score BioVue AHG, PAC samples 1-46, 49, 50, 52, 53 / Reaction score BioVue AHG, PAC sample 47 / Reaction score BioVue AHG, PAC sample 48 / Reaction score BioVue AHG, PAC sample 51 / agglutination score, T series serum 2 / agglutination score, T series serum 42 / agglutination score, T series serum 63 / agglutination score, T series serum 62 / agglutination score, T series serum 7 / agglutination score, T series serum 20 / agglutination score, T series serum 48 / agglutination score, T series serum 22 / agglutination score, T series serum 39 / agglutination score, T series serum 23 / agglutination score, T series serum 30 / agglutination score, T series serum 4 / agglutination score, T series serum 31 / agglutination score, T series serum 44 / agglutination score, T series serum 61 / agglutination score, T series serum 18 / agglutination score, T series serum 21 / agglutination score, T series serum 28 / agglutination score, T series serum 55 / agglutination score, false positive serum T18 / agglutination score, false positive serum T21 / agglutination score, false positive serum T28 / agglutination score, false positive serum T55 / agglutination score, false positive serum T78 / agglutination score, false positive serum T92: 0 or ‘−’ no agglutination; 0 or ‘−’ no agglutination; 1+ or 3=very weak agglutination; 1+ or 3=very weak agglutination; 2+ or 5=weak agglutination; 2+ or 5=weak agglutination; 3+ or 8=moderate strong agglutination; 3+ or 8=moderate strong agglutination; 4+ or 10/12=strong agglutination; 4+ or 10/12=strong agglutination; 4+ or 10/12=strong agglutination; details: larger series = 102; cells modified at 50 μg/ml, 2 hour 37° C.; BioVue AHG cards

Substance | score vs panel 2 T217 ([1]; Table 9, construct 50 μg/ml) | score vs panel 3 T165 ([1]; Table 9, construct 50 μg/ml) | score vs panel 4 T7202 ([1]; Table 9, construct 50 μg/ml) | score vs panel 6 T6025 ([1]; Table 9, construct 50 μg/ml) | score vs panel 7 T8445 ([1]; Table 9, construct 50 μg/ml) | score vs panel 8 T5896 ([1]; Table 9, construct 50 μg/ml) | score vs panel 9 MIII ([1]; Table 9, construct 50 μg/ml) | score vs panel 10 Mia ([1]; Table 9, construct 50 μg/ml) | score vs panel 2 T217 ([1]; Table 9, construct 100 μg/ml) | score vs panel 3 T165 ([1]; Table 9, construct 100 μg/ml) | score vs panel 4 T7202 ([1]; Table 9, construct 100 μg/ml) | score vs panel 6 T6025 ([1]; Table 9, construct 100 μg/ml) | score vs panel 7 T8445 ([1]; Table 9, construct 100 μg/ml) | score vs panel 8 T5896 ([1]; Table 9, construct 100 μg/ml) | score vs panel 9 MIII ([1]; Table 9, construct 100 μg/ml) | score vs panel 10 Mia ([1]; Table 9, construct 100 μg/ml) | score vs panel 11 Mur ([1]; Table 9, construct 100 μg/ml) | agglutination score, Panel Serum #7 (T8445) [1] | reactivity with Panel Serum #7 (T8445) [1] | score vs panel 15 TAP2 ([1]; Table 9, construct 50 μg/ml) | other results
M14: DOPE peptide-lipid construct: Mur peptide DTYPAHTANEVSE, leader c, spacer CMG(2) (DTYPAHTANEVSEC; also: DOPE peptide-lipid construct via leader Cys, spacer CMG(2)) | 0 | 10 | 3 | 5 | 8 | 0 | 0 | 0 | 3 | 10 | 5 | 10 | 5 | 0 | 0 | 0 | 0 |  |  |  | score vs panel 2 T217 ([1]; Table 9, construct 10 μg/ml): 0; score vs panel 3 T165 ([1]; Table 9, construct 10 μg/ml): 10; score vs panel 4 T7202 ([1]; Table 9, construct 10 μg/ml): 0; score vs panel 6 T6025 ([1]; Table 9, construct 10 μg/ml): 8; score vs panel 7 T8445 ([1]; Table 9, construct 10 μg/ml): 5; score vs panel 8 T5896 ([1]; Table 9, construct 10 μg/ml): 0; score vs panel 9 MIII ([1]; Table 9, construct 10 μg/ml): 0; score vs panel 10 Mia ([1]; Table 9, construct 10 μg/ml): 0; score vs panel 11 Mur ([1]; Table 9, construct 10 μg/ml): 0; score vs panel 13 BoxH ([1]; Table 9, construct 10 μg/ml): 0; score vs panel 11 Mur ([1]; Table 9, construct 50 μg/ml): 0; score vs panel 13 BoxH ([1]; Table 9, construct 100 μg/ml): 0
M16: DOPE peptide-lipid construct: Mur peptide TYPAHTANEV, leader c, spacer PEG (TYPAHTANEVC; also: DOPE peptide-lipid construct via leader Cys, spacer PEG) |  |  |  |  |  |  |  |  | 0 | 10 | 5 | 5 | 12 | 0 | 0 | 0 | 0 |  |  |  | score vs panel 12 Gam ([1]; Table 9, construct 100 μg/ml): 0; score vs panel 13 BoxH ([1]; Table 9, construct 100 μg/ml): 0
M18: DOPE peptide-lipid construct: Mur peptide PAHTANEV, leader c, spacer CMG(2) (PAHTANEVC; also: DOPE peptide-lipid construct via leader Cys, spacer CMG(2)) |  |  |  |  |  |  |  |  | 0 | 10 | 0 | 10 | 8 | 0 | 0 | 0 | 0 |  |  |  | score vs panel 12 Gam ([1]; Table 9, construct 100 μg/ml): 0
M19: DOPE peptide-lipid construct: Mur peptide PAHTANEV, leader c, spacer CMG(2) (PAHTANEVC; also: DOPE peptide-lipid construct via leader Cys, spacer CMG(2)) |  |  |  |  |  |  |  |  | 0 | 10 | 0 | 8 | 10 | 3 | 0 | 0 | 0 | 8 | 8 |  | score vs panel 12 Gam ([1]; Table 9, construct 100 μg/ml): 0; agglutination score, false positive serum T55 [2]: 12
M21: DOPE peptide-lipid construct: MUTK peptide SQTNDKHKRD, leader c, spacer CMG(2) (SQTNDKHKRDC; also: DOPE peptide-lipid construct via leader Cys, spacer CMG(2)) |  |  |  |  |  |  |  |  |  |  |  |  |  |  |  |  |  |  |  |  | score vs panel 2 T217 ([1]; Table 8, construct 200 μg/ml): 0; score vs panel 3 T165 ([1]; Table 8, construct 200 μg/ml): 8; score vs panel 4 T7202 ([1]; Table 8, construct 200 μg/ml): 0; score vs panel 6 T6025 ([1]; Table 8, construct 200 μg/ml): 8; score vs panel 7 T8445 ([1]; Table 8, construct 200 μg/ml): 0; score vs panel 8 T5896 ([1]; Table 8, construct 200 μg/ml): 0; score vs panel 9 MIII ([1]; Table 8, construct 200 μg/ml): 0; score vs panel 10 Mia ([1]; Table 8, construct 200 μg/ml): 0; score vs panel 11 Mur ([1]; Table 8, construct 200 μg/ml): 0; score vs panel 12 Gam ([1]; Table 8, construct 200 μg/ml): 3; score vs panel 15 TAP2 ([1]; Table 8, construct 200 μg/ml): 5
M25: DOPE peptide-lipid construct: Mur peptide Tyr Pro Ala His Thr Ala Asn Gln, leader c, spacer CMG(2) | 0 | 3 | 0 | 0 | 3 | 0 | 0 | 0 |  |  |  |  |  |  |  |  |  | 3 | 3 | 8 | score vs panel 11 Mur ([1]; Table 9, construct 50 μg/ml): 0; score vs panel 12 Gam ([1]; Table 9, construct 50 μg/ml): 0; agglutination score, false positive serum T78 [2]: 5
M26: DOPE peptide-lipid construct: Mur peptide YPAHTANEV, leader c, spacer CMG(2) (YPAHTANEVC; also: DOPE peptide-lipid construct via leader Cys, spacer CMG(2)) | 0 | 10 | 0 | 8 | 8 | 0 | 0 | 0 |  |  |  |  |  |  |  |  |  | 10 | 10 | 3 | score vs panel 11 Mur ([1]; Table 9, construct 50 μg/ml): 0; score vs panel 12 Gam ([1]; Table 9, construct 50 μg/ml): 0; agglutination score, false positive serum T18 [2]: 5; agglutination score, false positive serum T21 [2]: 10; agglutination score, false positive serum T28 [2]: 12; agglutination score, false positive serum T55 [2]: 10; agglutination score, false positive serum T78 [2]: 10; agglutination score, false positive serum T92 [2]: 12
M27: DOPE peptide-lipid construct: Mur peptide TYPAHTAN, leader c, spacer CMG(2) (TYPAHTANC; also: DOPE peptide-lipid construct via leader Cys, spacer CMG(2)) | 0 |  | 10 |  | 0 | 0 |  |  |  |  |  |  |  |  |  |  |  |  |  | 0 | 
M29: DOPE peptide-lipid construct: Mur peptide PAHTANEVS, leader c, spacer CMG(2) (PAHTANEVSC; also: DOPE peptide-lipid construct via leader Cys, spacer CMG(2)) | 0 |  | 10 |  |  | 0 |  |  |  |  |  |  |  |  |  |  |  | 8 | 8 | 8 | agglutination score, false positive serum T28 [2]: 5; agglutination score, false positive serum T92 [2]: 8
